From patent US20090050143A1, “MEDICINAL FORMULATION CONTAINER WITH A TREATED METAL SURFACE” (priority 2006, published 2009)

Experiments:
[1] = Drug adsorption to aluminum MDI canister on storage; assay type: physicochemical; settings: 3 days at room temperature
Procedure: The internal surface of an aluminum metered dose inhaler canister was treated with compound A1 (n-C4F9—(CH2)11—PO3H2) which may be prepared as described in Example 2 of U.S. Pat. No. 6,824,882, the disclosure of which is hereby incorporated by reference) as follows. The canister was initially soaked in heptane (analytical reagent grade) for 30 minutes while exposed to ultrasonic agitation. The canister was then rinsed with heptane (analytical reagent grade) for one minute followed by a rinse with isopropanol (analytical reagent grade) and allowed to air dry. The canister was then immersed in a 0.1% w/w solution of A1 in methyl tertiary butyl ether (analytical reagent grade) for 30 minutes while exposed to ultrasonic agitation. The canister was then rinsed in methyl tertiary butyl ether (analytical reagent grade) for one minute and allowed to air dry.
Fluticasone propionate was added to HFA-134A propellant to prepare a medicinal formulation with a fluticasone propionate concentration of 0.0083% w/w. Approximately 13 g of medicinal formulation was added to the treated canister which was sealed with an untreated aluminum blind ferrule (i.e., a casing member lacking valve components). The canister was stored in an upright position after filling to prevent contact of the medicinal formulation with the untreated aluminum surface of the blind ferrule. The solution was stored in the canister for 3 days at room temperature. The amount of fluticasone propionate adsorbed to the canister was 2.4% (+/−1.1%) measured according to the method described above.
A canister was prepared and tested as described in Example 1 with the exception that the canister was filled with a 0.0083% w/w formulation of fluticasone propionate in HFA-227. The solution was stored in the canister for 3 days at room temperature. The amount of fluticasone propionate adsorbed to the canister was 9.7% (+/−6.5%) measured according to the method described above.
An untreated aluminum canister was filled with the medicinal formulation of Example 1. The solution was stored in the canister for 3 days at room temperature. The amount of fluticasone propionate adsorbed to the canister was 23.2% (+/−1.5%) measured according to the method described above.
An untreated aluminum canister was filled with the medicinal formulation of Example 2. The solution was stored in the canister for 3 days at room temperature. The amount of fluticasone propionate adsorbed to the canister was 35.5% (+/−1.8%) measured according to the method described above.

[2] = Total drug content of canisters filled from stainless steel filling system (HPLC); assay type: physicochemical; settings: 0.0083% w/w suspension in HFA-227a
Procedure: The vessel was initially soaked in heptane (analytical reagent grade) for 30 minutes while exposed to ultrasonic agitation. The vessel was then rinsed with heptane (analytical reagent grade) for one minute followed by a rinse with isopropanol (analytical reagent grade) and allowed to air dry. The vessel was then immersed in a 0.1% w/w solution of A1 in methyl tertiary butyl ether (analytical reagent grade) for 30 minutes while exposed to ultrasonic agitation. The vessel was then rinsed in methyl tertiary butyl ether (analytical reagent grade) for one minute and allowed to air dry. Additional components of the filling system that contact medicinal formulation during the filling process (solenoid, tubing, stirring paddles, mixing baffles) were treated in the same manner as the vessel.
HFA-227a (600.7 g) was chilled and added to the filling vessel. […] The total drug content (i.e., drug suspended in formulation, as well as drug adhered to the canister) of 6 representative canisters (numbers 9, 11, 13, 14, 16, and 18 in the filling sequence) was analyzed using high performance liquid chromatography. A target total drug content was calculated based on the exact amount of formulation added to each canister and the nominal concentration in the filling vessel. […]

CCC(=O)O[C@]1(C(=O)SCF)[C@H](C)C[C@H]2[C@@H]3C[C@H](F)C4=CC(=O)C=C[C@]4(C)[C@@]3(F)[C@@H](O)C[C@@]21C [fluticasone propionate]
amount of fluticasone propionate adsorbed to the canister ([1]; A1-treated aluminum canister, 0.0083% w/w in HFA-134A): 2.4% | amount of fluticasone propionate adsorbed to the canister ([1]; A1-treated aluminum canister, 0.0083% w/w in HFA-227): 9.7% | amount of fluticasone propionate adsorbed to the canister ([1]; untreated aluminum canister, 0.0083% w/w in HFA-134A): 23.2% | amount of fluticasone propionate adsorbed to the canister ([1]; untreated aluminum canister, 0.0083% w/w in HFA-227): 35.5% | average total drug content in the filled canisters, less than the target total drug content ([2]; A1-treated stainless steel filling system, 6 canisters): 2% | average total drug content in the filled canisters, less than the target total drug content ([2]; untreated stainless steel filling system): 58%
